Tests used:
[1] = test system: Mycobacterium tuberculosis Erdman (autoluminescent); test: total FIC50 (Loewe) at 50% inhibition, three-drug combination (log2); higher = more antagonistic
Experimental: (§1)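 DiaMOND equipotent three-drug combination dose responses (10 doses, 1.5- or 2-fold spacing, centred on IC90) against autoluminescent M. tuberculosis Erdman in 8 in vitro models. Read-out is OD600, or luminescence for the intracellular and dormancy models, normalised to untreated wells. Hill-fit Einf, AUC25 and GRinf are potency metrics; FIC50 and FIC90 are total Loewe fractional inhibitory concentrations as log2 (negative = synergy).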

[2] = test system: Mycobacterium tuberculosis Erdman (autoluminescent); test: total FIC90 (Loewe) at 90% inhibition, three-drug combination (log2); higher = more antagonistic
Experimental: as §1

[3] = test system: Mycobacterium tuberculosis Erdman (autoluminescent); test: Einf, fitted maximum growth inhibition of three-drug combination (fraction); higher = stronger maximal inhibition
Experimental: as §1

[4] = test system: Mycobacterium tuberculosis Erdman (autoluminescent); test: AUC25, normalised area under dose response up to IC25 (three-drug combination) (fraction (0-1)); higher = more potent at low dose
Experimental: as §1

[5] = test system: Mycobacterium tuberculosis Erdman (autoluminescent); test: GRinf, maximum normalised growth rate inhibition (three-drug combination) (unitless (-1 to 1)); higher = less effect (negative = killing)
Experimental: as §1

CC(C)/N=c1\cc2n(-c3ccc(Cl)cc3)c3ccccc3nc-2cc1Nc1ccc(Cl)cc1 [clofazimine] + COc1c(N2C[C@@H]3CCCN[C@@H]3C2)c(F)cc2c(=O)c(C(=O)O)cn(C3CC3)c12 [moxifloxacin] + NC(=O)c1cnccn1 [pyrazinamide]
Conditions	AUC25, [4]	Einf, [3]	GRinf, [5]	total FIC50, [1]	total FIC90, [2]
in vitro model: acidic pH 5.7, time point: constant (~7 days, model-specific)	0.0994	0.605	-0.618	0.273	–
in vitro model: acidic pH 5.7, time point: terminal (~4-5 doublings, model-specific)	0.0958	0.951	-0.261	-0.216	-0.195
in vitro model: intracellular J774, time point: constant = terminal	–	0.975	-0.333	–	0.42

Conditions	AUC25, [4]	Einf, [3]	GRinf, [5]	total FIC50, [1]	total FIC90, [2]
in vitro model: butyrate, time point: constant (~7 days, model-specific)	0.127	0.968	-0.193	-0.173	0.847
in vitro model: butyrate, time point: terminal (~4-5 doublings, model-specific)	0.0926	0.973	-0.0738	-0.0902	0.342
in vitro model: cholesterol 0.05 mM, time point: constant (~7 days, model-specific)	0.129	0.646	-0.114	–	–
in vitro model: cholesterol 0.05 mM, time point: terminal (~4-5 doublings, model-specific)	0.112	0.927	-0.137	0.91	–
in vitro model: cholesterol-high 0.2 mM, time point: constant (~7 days, model-specific)	0.108	0.882	-0.3	0.275	–
in vitro model: cholesterol-high 0.2 mM, time point: terminal (~4-5 doublings, model-specific)	0.0989	0.998	-0.761	0.347	0.272
in vitro model: dormancy (butyrate + nitrate, low O2), time point: constant (~7 days, model-specific)	0.113	0.919	0.162	-0.332	-0.522
in vitro model: dormancy (butyrate + nitrate, low O2), time point: terminal (~4-5 doublings, model-specific)	0.0767	0.992	-0.202	0.182	0.297
in vitro model: standard 7H9 glycerol, time point: constant = terminal	0.111	0.974	-0.232	–	–
in vitro model: valerate, time point: constant (~7 days, model-specific)	0.122	0.852	-0.0384	0.546	–
in vitro model: valerate, time point: terminal (~4-5 doublings, model-specific)	0.067	0.914	0.0776	0.292	0.85

CC(C)/N=c1\cc2n(-c3ccc(Cl)cc3)c3ccccc3nc-2cc1Nc1ccc(Cl)cc1 [clofazimine] + COc1c(N2C[C@@H]3CCCN[C@@H]3C2)c(F)cc2c(=O)c(C(=O)O)cn(C3CC3)c12 [moxifloxacin] + O=[N+]([O-])c1cn2c(n1)OC[C@@H](OCc1ccc(OC(F)(F)F)cc1)C2 [pretomanid]
Conditions	AUC25, [4]	Einf, [3]	GRinf, [5]	total FIC50, [1]	total FIC90, [2]
in vitro model: acidic pH 5.7, time point: constant (~7 days, model-specific)	0.111	0.66	-0.331	0.779	–
in vitro model: acidic pH 5.7, time point: terminal (~4-5 doublings, model-specific)	0.0647	0.93	-0.186	0.34	0.287
in vitro model: intracellular J774, time point: constant = terminal	–	0.981	-0.328	–	-0.136

Conditions	AUC25, [4]	Einf, [3]	GRinf, [5]	total FIC50, [1]	total FIC90, [2]
in vitro model: butyrate, time point: constant (~7 days, model-specific)	0.114	0.945	-0.41	0.567	2.06
in vitro model: butyrate, time point: terminal (~4-5 doublings, model-specific)	0.101	0.989	-0.286	0.561	1.3
in vitro model: cholesterol 0.05 mM, time point: constant (~7 days, model-specific)	0.112	0.707	-0.152	0.31	–
in vitro model: cholesterol 0.05 mM, time point: terminal (~4-5 doublings, model-specific)	0.104	0.908	-0.0989	0.933	0.0471
in vitro model: cholesterol-high 0.2 mM, time point: constant (~7 days, model-specific)	0.108	0.921	-0.386	0.526	2.16
in vitro model: cholesterol-high 0.2 mM, time point: terminal (~4-5 doublings, model-specific)	0.111	1	-0.905	0.181	0.651
in vitro model: dormancy (butyrate + nitrate, low O2), time point: constant (~7 days, model-specific)	0.096	0.958	0.184	0.193	-0.0601
in vitro model: dormancy (butyrate + nitrate, low O2), time point: terminal (~4-5 doublings, model-specific)	0.0701	0.981	-0.138	0.461	0.601
in vitro model: standard 7H9 glycerol, time point: constant = terminal	0.112	0.974	-0.306	-0.121	0.463
in vitro model: valerate, time point: constant (~7 days, model-specific)	0.117	0.881	-0.0836	0.973	–
in vitro model: valerate, time point: terminal (~4-5 doublings, model-specific)	0.0939	0.934	-0.0367	0.371	-0.0804

CC(C)/N=c1\cc2n(-c3ccc(Cl)cc3)c3ccccc3nc-2cc1Nc1ccc(Cl)cc1 [clofazimine] + NC(=O)c1cnccn1 [pyrazinamide] + CO[C@H]1/C=C/O[C@@]2(C)Oc3c(C)c(O)c4c(O)c(c(/C=N/N5CCN(C6CCCC6)CC5)c(O)c4c3C2=O)NC(=O)/C(C)=C\C=C\[C@H](C)[C@H](O)[C@@H](C)[C@@H](O)[C@@H](C)[C@H](OC(C)=O)[C@@H]1C [rifapentine]
Conditions	AUC25, [4]	Einf, [3]	GRinf, [5]	total FIC50, [1]	total FIC90, [2]
in vitro model: acidic pH 5.7, time point: constant (~7 days, model-specific)	0.0912	0.872	-0.0882	-0.248	–
in vitro model: acidic pH 5.7, time point: terminal (~4-5 doublings, model-specific)	0.0866	0.992	-0.166	-0.185	-0.282
in vitro model: intracellular J774, time point: constant = terminal	–	0.987	-0.31	–	-0.162

Conditions	AUC25, [4]	Einf, [3]	GRinf, [5]	total FIC50, [1]	total FIC90, [2]
in vitro model: butyrate, time point: constant (~7 days, model-specific)	0.112	0.934	-0.137	0.135	0.657
in vitro model: butyrate, time point: terminal (~4-5 doublings, model-specific)	0.0906	0.969	-0.0833	0.161	0.364
in vitro model: cholesterol 0.05 mM, time point: constant (~7 days, model-specific)	0.142	0.621	-0.201	–	–
in vitro model: cholesterol 0.05 mM, time point: terminal (~4-5 doublings, model-specific)	0.111	0.899	-0.27	0.876	–
in vitro model: cholesterol-high 0.2 mM, time point: constant (~7 days, model-specific)	0.121	0.905	-0.547	0.527	–
in vitro model: cholesterol-high 0.2 mM, time point: terminal (~4-5 doublings, model-specific)	0.0971	0.984	-0.634	0.828	0.832
in vitro model: dormancy (butyrate + nitrate, low O2), time point: constant (~7 days, model-specific)	0.0828	0.929	0.0852	-0.285	-1.22
in vitro model: dormancy (butyrate + nitrate, low O2), time point: terminal (~4-5 doublings, model-specific)	0.0573	0.993	-0.269	-0.0992	0.0246
in vitro model: standard 7H9 glycerol, time point: constant = terminal	0.115	0.936	-0.0744	-0.0271	–
in vitro model: valerate, time point: constant (~7 days, model-specific)	0.118	0.911	-0.101	0.0622	–
in vitro model: valerate, time point: terminal (~4-5 doublings, model-specific)	0.0526	0.901	0.0624	0.391	1.33

Source: the supplement of paper PMC8617591
